Data published in PMC8044178, “Structural basis of norepinephrine recognition and transport inhibition in neurotransmitter transporters” (Nature Communications, 2021).
Like-named read-outs stand apart in the source and are kept apart here.

Assays:
[1] = molecular target: T1, dDATfc (Drosophila melanogaster dopamine transporter functional construct) (Drosophila melanogaster, UniProt Q7K4Y6, DEL164-191/F471L/L415A/V74A); assay: cell-based
T1 construct: expressed in transfected cells; host or cells: HEK293S GnTI- cells, transient transfection with pEG-BacMam plasmid
Procedure: (§1) Additional mutations in the subsite B or subsite C were incorporated into this gene used for carrying out the uptake assays.
(§2) Cells were transiently transfected with pEG-BacMam plasmid harboring the dDAT cGFP gene and incubated for 35–40 hrs at 37 °C with 5% CO2 and 80% humidity. […] The transport activity was arrested with 0.5 ml of pre-chilled assay buffer containing 100 μM desipramine (Sigma Aldrich) added to each reaction. The cells were then washed twice with the same buffer before solubilizing them in 0.1 ml of 20 mM DDM for one hour at room temperature. […] Following this, 0.1 ml of the supernatant was added to 0.5 ml of scintillation fluid (Ultima Gold, Perkin Elmer) and the radioactivity was estimated on MicroBeta scintillation counter (Perkin Elmer). […] The background-subtracted, dose–response plots were analyzed using GraphPad Prism v.5.0.1 and Ki values were determined from Cheng–Prusoff’s equation using the IC50 values obtained from the experiments.

dDATfc A117S = molecular target: T2, dDATfc A117S (Drosophila melanogaster, UniProt Q7K4Y6, A117S/DEL164-191/F471L/L415A/V74A); assay: cell-based
T2 construct: expressed in transfected cells; host or cells: HEK293S GnTI- cells, transient transfection with pEG-BacMam plasmid
Procedure: (§3) Earlier studies have posited that non-conserved residues in the primary binding site are responsible for selective inhibition of biogenic amine uptake[57],[58]. […] Effects of these mutations were analyzed through uptake inhibition using the three SNRIs employed in this study (Fig. 6a–c). […] Supplementary Table 2)[56],[59].
as §1, §2

dDATfc A428S = molecular target: T3, dDATfc A428S (Drosophila melanogaster, UniProt Q7K4Y6, A428S/DEL164-191/F471L/L415A/V74A); assay: cell-based
T3 construct: expressed in transfected cells; host or cells: HEK293S GnTI- cells, transient transfection with pEG-BacMam plasmid
Procedure: as §3, §1, §2

dDATfc A117S/A428S = molecular target: T4, dDATfc A117S/A428S (Drosophila melanogaster, UniProt Q7K4Y6, A117S/A428S/DEL164-191/F471L/L415A/V74A); assay: cell-based; format: cell-based
T4 construct: expressed in transfected cells; host or cells: HEK293S GnTI- cells, transient transfection with pEG-BacMam plasmid
Procedure: as §3, §1, §2

dDATNET = molecular target: T5, dDATNET (Drosophila melanogaster, UniProt Q7K4Y6, D121G/DEL162-202/F471L/L415A/S426M/V74A); assay: biochemical; format: binding
T5 construct: GFP-8x-His (C); made in house; host or cells: HEK293S GnTI- cells, BacMam baculovirus transduction
Procedure: (§4) Binding assays were performed with 20 nM of purified dDAT protein by scintillation proximity assay. For determining nisoxetine Kd, [^3H] Nisoxetine (Perkin Elmer) (in 1:5 molar ratio) was used in the range of 0.1 nM to 500 nM with 100 µM desipramine added to the control samples. Competition assays were done with 50 nM [^3H] […] The assays were done in 1 mM DDM, 0.2 mM CHS, 20 mM Tris-Cl (pH 8), 300 mM NaCl and 5% glycerol. The background values were subtracted to plot the final curves in GraphPad prism v5.0.1 and the Kd values were calculated. The IC50 values obtained from binding competition assays were used to deduce the Ki values by Cheng–Prusoff’s equation.

dDATmfc = molecular target: T6, dDATmfc (Drosophila melanogaster, UniProt Q7K4Y6, DEL162-202/F471L/L415A/V74A); assay: biochemical; settings: read-out: Percent binding
T6 construct: GFP-8x-His (C); made in house; host or cells: HEK293S GnTI- cells, BacMam baculovirus transduction
Procedure: as §4

hNET [2] = settings: read-out: Uptake Inhibition Ki, hNET; cited from earlier work
hDAT [3] = molecular target: hDAT; parameters: method as in earlier work; settings: vs. RTI-55; ref 4 (Supplementary: Vaishnavi et al., 2004); read-out: Binding Inhibition (Ki), hDAT; cited from earlier work
hDAT [4] = settings: read-out: Uptake Inhibition Ki, hDAT; ref 4 (Supplementary: Vaishnavi et al., 2004); cited from earlier work
hNET [5] = settings: read-out: Binding Inhibition (Ki), hNET; cited from earlier work

CCN(CC)C(=O)[C@]1(c2ccccc2)C[C@@H]1CN [Milnacipran, 1R-2S milnacipran]
IC50 [1]: 2.4 ± 0.1 µM
Ki [1]: 1.5 ± 0.1 µM
inhibition at 100 µM ([1]; HEK293S, 0.5 h, read-out: Percent inhibition of DA uptake, dDATfc, Log[compound] M = -4, single replicates): 3.99%
inhibition at 30 µM ([1]; HEK293S, 0.5 h, read-out: Percent inhibition of DA uptake, dDATfc, Log[compound] M = -4.52288, single replicates): 6.55%
inhibition at 10 µM ([1]; HEK293S, 0.5 h, read-out: Percent inhibition of DA uptake, dDATfc, Log[compound] M = -5, single replicates): 22.7%
inhibition at 3 µM ([1]; HEK293S, 0.5 h, read-out: Percent inhibition of DA uptake, dDATfc, Log[compound] M = -5.52288, single replicates): 46.8%
inhibition at 1 µM ([1]; HEK293S, 0.5 h, read-out: Percent inhibition of DA uptake, dDATfc, Log[compound] M = -6, single replicates): 82.4%
IC50 (dDATfc A117S): 2.8 ± 0.2 µM
inhibition at 10 µM (dDATfc A117S; 0.5 h, read-out: Percent inhibition of DA uptake, A117S, Log[compound] M = -5, single replicates): 21.8%
inhibition at 2.3 µM (dDATfc A117S; 0.5 h, read-out: Percent inhibition of DA uptake, A117S, Log[compound] M = -5.63827, single replicates): 62.3%
inhibition at 1 µM (dDATfc A117S; 0.5 h, read-out: Percent inhibition of DA uptake, A117S, Log[compound] M = -6, single replicates): 87.2%
inhibition at 0.1 µM (dDATfc A117S; 0.5 h, read-out: Percent inhibition of DA uptake, A117S, Log[compound] M = -7, single replicates): 99.6%
inhibition at 0.023 µM (dDATfc A117S; 0.5 h, read-out: Percent inhibition of DA uptake, A117S, Log[compound] M = -7.63827, single replicates): 94.7%
IC50 (dDATfc A428S): 6.6 ± 0.4 µM
inhibition at 100 µM (dDATfc A428S; 0.5 h, read-out: Percent inhibition of DA uptake, A428S, Log[compound] M = -4, single replicates): 7.1%
inhibition at 30 µM (dDATfc A428S; 0.5 h, read-out: Percent inhibition of DA uptake, A428S, Log[compound] M = -4.52288, single replicates): 15.3%
inhibition at 10 µM (dDATfc A428S; 0.5 h, read-out: Percent inhibition of DA uptake, A428S, Log[compound] M = -5, single replicates): 34.4%
inhibition at 3 µM (dDATfc A428S; 0.5 h, read-out: Percent inhibition of DA uptake, A428S, Log[compound] M = -5.52288, single replicates): 73.5%
inhibition at 0.1 µM (dDATfc A428S; 0.5 h, read-out: Percent inhibition of DA uptake, A428S, Log[compound] M = -7, single replicates): 107%
inhibition at 0.03 µM (dDATfc A428S; 0.5 h, read-out: Percent inhibition of DA uptake, A428S, Log[compound] M = -7.52288, single replicates): 100%
IC50 (dDATfc A117S/A428S): 8.9 ± 0.3 µM
inhibition at 100 µM (dDATfc A117S/A428S; 0.5 h, read-out: Percent inhibition of DA uptake, A117S_A428S, Log[compound] M = -4, single replicates): 6.51%
inhibition at 30 µM (dDATfc A117S/A428S; 0.5 h, read-out: Percent inhibition of DA uptake, A117S_A428S, Log[compound] M = -4.52288, single replicates): 16.4%
inhibition at 10 µM (dDATfc A117S/A428S; 0.5 h, read-out: Percent inhibition of DA uptake, A117S_A428S, Log[compound] M = -5, single replicates): 35.5%
inhibition at 3 µM (dDATfc A117S/A428S; 0.5 h, read-out: Percent inhibition of DA uptake, A117S_A428S, Log[compound] M = -5.52288, single replicates): 78.6%
inhibition at 0.3 µM (dDATfc A117S/A428S; 0.5 h, read-out: Percent inhibition of DA uptake, A117S_A428S, Log[compound] M = -6.52288, single replicates): 91.2%
inhibition at 0.1 µM (dDATfc A117S/A428S; 0.5 h, read-out: Percent inhibition of DA uptake, A117S_A428S, Log[compound] M = -7, single replicates): 87.2%
inhibition at 0.03 µM (dDATfc A117S/A428S; 0.5 h, read-out: Percent inhibition of DA uptake, A117S_A428S, Log[compound] M = -7.52288, single replicates): 89.7%
Ki (dDATNET; Binding Ki with dDATNET (vs. Nisoxetine), 50 nM [3H] nisoxetine, Cheng-Prusoff): 0.605 ± 0.0253 µM
remaining activity at 300 µM (dDATNET; read-out: Percent binding, DAT NET, Log Milnacipran (M) -3.52288, replicate values): 3.09%
remaining activity at 100 µM (dDATNET; read-out: Percent binding, DAT NET, Log Milnacipran (M) -4, replicate values): 12%
remaining activity at 30 µM (dDATNET; read-out: Percent binding, DAT NET, Log Milnacipran (M) -4.52288, replicate values): 31.5%
remaining activity at 10 µM (dDATNET; read-out: Percent binding, DAT NET, Log Milnacipran (M) -5, replicate values): 60%
remaining activity at 3 µM (dDATNET; read-out: Percent binding, DAT NET, Log Milnacipran (M) -5.52288, replicate values): 78.6%
remaining activity at 10 µM (dDATmfc; DATmfc, Log Milnacipran (M) -5, replicate values): 21.2%
remaining activity at 0.03 µM (dDATmfc): 98.1%
remaining activity at 0.3 µM (dDATmfc): 86.3%
remaining activity at 3 µM (dDATmfc): 47.5%
Ki (hNET [2]): 0.052 ± 0.009 µM
Ki (hDAT [3]): > 100 µM
Ki (hDAT [4]): > 100 µM
Ki (hNET [5]): 0.022 ± 0.00258 µM
